Laboratory results: article PMC10076671, “Spider venom-derived peptide JZTX-14 prevents migration and invasion of breast cancer cells via inhibition of sodium channels” (Frontiers in Pharmacology, 2023)
Where a SMILES comes first, the peptide text is derived from it. Bridges are numbered along the chain shown (N, C = ends).

Tests used:
[1] = test system: human breast cancer cells; settings: ref Wannous et al., 2015; cited from earlier work
Description: (§1) Voltage-gated sodium channels (Navs; VGSCs) are membrane proteins with nine isoforms responsible for the rapid upstroke of action potentials in excitable cells ([de Lera Ruiz and Kraus, 2015]). VGSCs are present in excitable and non-excitable cells, including microglia, astrocytes, immune cells, fibroblasts, and cancer cells, and play various biological roles, such as tumour cell migration and immune cell phagocytosis ([Black and Waxman, 2013]; [Roger et al., 2015]). Nav1.5, encoded by SCN5A, is an essential receptor in breast cancer growth and migration ([Rajaratinam et al., 2022]).

Nav1.5 = format: cell-based; settings: Discussion: HEK293 cells heterologously expressing Nav1.5, 0.1 and 1 μM
Experimental: Sodium currents in experimental cells were recorded at room temperature (22°C–25°C) using an EPC-10 patch-clamp amplifier (HEKA, Germany) in a whole-cell patch-clamp configuration. Recording pipettes were made from borosilicate glass capillaries (VWR, United States) using a PC-10 puller (Narishige, Japan). The inner solution (mM): KCl 130, NaCl 15, CaCl2 0.37, MgCl2 1 EGTA 1, HEPES 10, pH 7.2, resistance was measured as 1.8 MO. The outer solution was composed of (mM): NaCl 140, KCl 3, MgCl2 1, CaCl2 1, HEPES 10, pH 7.2. To minimize voltage errors, the series resistance compensation was set to 80%. The P/4 protocol was used to subtract the linear capacitance and leakage current. Experimental data were acquired and analyzed using the pulse fit 8.0 program (HEKA, Germany). The needed concentrations of toxin dissolved in external solution were applied to the cell surface by microinjector.
To determine the biological activity of synthetic and natural JZTX-14 on Nav1.5, we observed their effects on HEK293T cells heterologously expressing Nav1.5 using a whole-cell voltage-clamp configuration. The current traces were induced by a 50 ms depolarisation potential of −30 mV at a holding potential of −100 mV. Currents were recorded by adding 0.1 μM and 0.5 μM of JZTX-14 to the solution.

breast cancer cells = settings: inhibiting the PI3K/Akt/mTOR signalling pathway, ref Lim et al., 2019; cited from earlier work
Description: A peptide with anticancer activity was isolated and purified from animal venom to construct a new anticancer drug library. Compared to small-molecule drugs, peptide drugs have the advantages of high selectivity and affinity for molecular targets, and it is not easy to make tumours resistant to drugs ([Wu et al., 2014]). To date, many anticancer peptides have been screened from animal venom. […] Melittin, ...

MDA-MB-231 cells [2] = settings: strongly metastatic MDA-MB-231 cells; ref Yang et al., 2012; cited from earlier work
Description: as §1

MDA-MB-231 cells [3] = settings: ref Yang et al., 2012; cited from earlier work
Description: Voltage-gated sodium channels (Navs; VGSCs) are membrane proteins with nine isoforms responsible for the rapid upstroke of action potentials in excitable cells ([de Lera Ruiz and Kraus, 2015]). VGSCs are present in excitable and non-excitable cells, including microglia, astrocytes, immune cells, fibroblasts, and cancer cells, and play various biological roles, such as tumour cell migration and immune cell phagocytosis ([Black and Waxman, 2013]; [Roger et al., 2015]). Nav1.5, encoded by SCN5A, is an essential receptor in breast cancer growth and migration ([Rajaratinam et al., 2022]). […] Nav1.5, a pore-forming alpha subunit of VGSC encoded by SCN5A, is not expressed in normal breast tissue or cells but is highly expressed in the breast cancer cell line MDA-MB-231 ([Dutta et al., 2018]). Elevated Nav1.5 expression promotes cell invasion and breakdown of extracellular matrix proteins, maintains ac ... || A peptide with anticancer activity was isolated and purified from animal venom to construct a new anticancer drug library. Compared to small-molecule drugs, peptide drugs have the advantages of high selectivity and affinity for molecular targets, and it is not easy to make tumours resistant to drugs ([Wu et al., 2014]). To date, many anticancer peptides have been screened from animal venom. […] Melittin, ...

breast cancer cell = settings: ref Driffort et al., 2014; cited from earlier work
Description: as §1

## CC/C=C\C/C=C\C/C=C\C/C=C\C/C=C\C/C=C\CCC(=O)O [DHA]
[1]
  Invasiveness of Nav1.5-dependent cancer cells: reducing the invasiveness of Nav1.5-dependent cancer cells
  Nav1.5 current and NHE-1 activity: inhibits Nav1.5 current and NHE-1 activity

## CC[C@H](C)[C@H](NC(=O)[C@@H]1CSSC[C@@H]2NC(=O)[C@@H]3CCCN3C(=O)[C@@H]3CCCN3C(=O)[C@H](CCC(N)=O)NC(=O)CNC(=O)[C@@H]3CCCN3C(=O)[C@H](Cc3c[nH]cn3)NC(=O)[C@@H]3CSSC[C@H](NC(=O)[C@H](C)NC(=O)[C@H](CC(C)C)NC(=O)CNC(=O)[C@H](CO)NC(=O)[C@H](CSSC[C@H](NC(=O)CN)C(=O)N[C@@H](CCC(N)=O)C(=O)N[C@@H](CCCCN)C(=O)N[C@@H](Cc4ccccc4)C(=O)N[C@@H](Cc4ccccc4)C(=O)N[C@@H](Cc4c[nH]c5ccccc45)C(=O)N[C@@H]([C@@H](C)O)C(=O)N3)NC2=O)C(=O)N[C@@H]([C@@H](C)O)C(=O)N[C@@H](Cc2c[nH]c3ccccc23)C(=O)N2CCC[C@H]2C(=O)N[C@@H]([C@@H](C)O)C(=O)N[C@@H](CCC(=O)O)C(=O)N[C@@H]([C@@H](C)CC)C(=O)N1)C(=O)N[C@@H](CC(C)C)C(N)=O [natural JZTX-14] (H-GCQKFFWTCHPGQPPCCSGLACTWPTEICIL-NH2; disulfide 2-17, 9-22, 16-29)
Nav1.5
  Inhibition of Nav1.5 channels (in words): significantly inhibited Nav1.5 channels in a concentration-dependent manner

## Melittin: the main peptide component of Apis mellifera venom
Breast cancer cells
  EGF-induced cell movement and invasion: inhibits EGF-induced cell movement and invasion

## O=C1NC(=O)C(c2ccccc2)(c2ccccc2)N1 [Phenytoin]
MDA-MB-231 cells [2]
  Transient and persistent Na+ current: inhibited the transient and persistent Na^+ current
MDA-MB-231 cells [3]
  Migration and invasion: significantly inhibiting the migration and invasion

## COc1ccccc1OCC(O)CN1CCN(CC(=O)Nc2c(C)cccc2C)CC1 (stereo not shown) [Ranolazine]
Breast cancer cell
  Nav1.5-mediated breast cancer cell invasiveness and lung colonisation: inhibits Nav1.5-mediated breast cancer cell invasiveness and lung colonisation
